Data from article PMC4447944 (The Journal of Biological Chemistry, 2015).

Assays:
hACVRL1 = biological target: T1, hACVRL1 (Homo sapiens, UniProt P37023); test: KINOMEscan; format: binding
T1 construct: purchased DiscoverX (KINOMEscan platform)

hAKT3 = biological target: T2, hAKT3 (Homo sapiens, UniProt Q9Y243); test: KINOMEscan; format: binding
T2 construct: purchased DiscoverX

hAMPK-alpha2 = biological target: T3, hAMPK-alpha2 (Homo sapiens, UniProt P54646); test: KINOMEscan; format: binding
T3 construct: purchased DiscoverX

hCAMK2B = biological target: T4, hCAMK2B (Homo sapiens, UniProt Q13554); test: KINOMEscan; format: binding
T4 construct: purchased DiscoverX

hCAMKK2 = biological target: T5, hCAMKK2 (Homo sapiens, UniProt Q96RR4); test: KINOMEscan; format: binding
T5 construct: purchased DiscoverX

hCLK2 = biological target: T6, hCLK2 (Homo sapiens, UniProt P49760); test: KINOMEscan; format: binding
T6 construct: purchased DiscoverX

hCSNK2A2 = biological target: T7, hCSNK2A2 (Homo sapiens, UniProt P19784); test: KINOMEscan; format: binding
T7 construct: purchased DiscoverX (KINOMEscan platform)

hDAPK3 = biological target: T8, hDAPK3 (Homo sapiens, UniProt O43293); test: KINOMEscan; format: binding
T8 construct: purchased DiscoverX (KINOMEscan platform)

hDCAMKL1 = biological target: T9, hDCAMKL1 (Homo sapiens, UniProt O15075); test: KINOMEscan; format: binding
T9 construct: purchased DiscoverX (KINOMEscan platform)

hDCAMKL2 = biological target: T10, hDCAMKL2 (Homo sapiens, UniProt Q8N568); test: KINOMEscan; format: binding
T10 construct: purchased DiscoverX (KINOMEscan platform)

hDMPK2 = biological target: T11, hDMPK2 (Homo sapiens, UniProt Q6DT37); test: KINOMEscan; format: binding
T11 construct: purchased DiscoverX (KINOMEscan platform)

hDRAK2 = biological target: T12, hDRAK2 (Homo sapiens, UniProt O94768); test: KINOMEscan; format: binding
T12 construct: purchased DiscoverX

hEGFR(T790M) = biological target: T13, hEGFR(T790M) (Homo sapiens, UniProt P00533, T790M); test: KINOMEscan; format: binding
T13 construct: purchased DiscoverX

hEPHA7 = biological target: T14, hEPHA7 (Homo sapiens, UniProt Q15375); test: KINOMEscan; format: binding
T14 construct: purchased DiscoverX

hERBB3 = biological target: T15, hERBB3 (Homo sapiens, UniProt P21860); test: KINOMEscan; format: binding
T15 construct: purchased DiscoverX

hFYN = biological target: T16, hFYN (Homo sapiens, UniProt P06241); test: KINOMEscan; format: binding
T16 construct: purchased DiscoverX

hHIPK1 = biological target: T17, hHIPK1 (Homo sapiens, UniProt Q86Z02); test: KINOMEscan; format: binding
T17 construct: purchased DiscoverX

hIRAK3 = biological target: T18, hIRAK3 (Homo sapiens, UniProt Q9Y616); test: KINOMEscan; format: binding
T18 construct: purchased DiscoverX (KINOMEscan panel)

hJAK2(JH1Dom.-catalytic) = biological target: T19, hJAK2(JH1Dom.-catalytic) (Homo sapiens, UniProt O60674); test: KINOMEscan; format: binding
T19 construct: hJAK2(JH1Dom.-catalytic); purchased DiscoverX (KINOMEscan panel)

hLRRK2 = biological target: T20, hLRRK2 (Homo sapiens, UniProt Q5S007); test: KINOMEscan; format: binding
T20 construct: purchased DiscoverX (KINOMEscan platform)

hMAP3K1 = biological target: T21, hMAP3K1 (Homo sapiens, UniProt Q13233); test: KINOMEscan; format: binding
T21 construct: purchased DiscoverX (KINOMEscan platform)

hMAP4K4 = biological target: T22, hMAP4K4 (Homo sapiens, UniProt O95819); test: KINOMEscan; format: binding
T22 construct: purchased DiscoverX (KINOMEscan platform)

hMARK4 = biological target: T23, hMARK4 (Homo sapiens, UniProt Q96L34); test: KINOMEscan; format: binding
T23 construct: purchased DiscoverX

hMAST1 = biological target: T24, hMAST1 (Homo sapiens, UniProt Q9Y2H9); test: KINOMEscan; format: binding
T24 construct: purchased DiscoverX

hMEK2 = biological target: T25, hMEK2 (Homo sapiens, UniProt P36507); test: KINOMEscan; format: binding
T25 construct: purchased DiscoverX

hRIOK2 = biological target: T26, hRIOK2 (Homo sapiens, UniProt Q9BVS4); test: KINOMEscan; format: binding
T26 construct: purchased DiscoverX (KINOMEscan platform)

hRIPK2 = biological target: T27, hRIPK2 (Homo sapiens, UniProt O43353); test: KINOMEscan; format: binding
T27 construct: purchased DiscoverX (KINOMEscan platform)

hROCK2 = biological target: T28, hROCK2 (Homo sapiens, UniProt O75116); test: KINOMEscan; format: binding
T28 construct: purchased DiscoverX (KINOMEscan platform)

hTIE1 = biological target: T29, hTIE1 (Homo sapiens, UniProt P35590); test: KINOMEscan; format: binding
T29 construct: purchased DiscoverX

hULK3 = biological target: T30, hULK3 (Homo sapiens, UniProt Q6PHR2); test: KINOMEscan; format: binding
T30 construct: purchased DiscoverX

hPPARδ = biological target: T31, hPPARδ (Homo sapiens, UniProt Q03181); test: Nuclear hormone receptor assay (Eurofins-CEREP); conditions: read-out: Relative IC50
T31 construct: Eurofins-CEREP

hRARγ = biological target: T32, hRARγ (Homo sapiens, UniProt P13631); test: Nuclear hormone receptor assay (Eurofins-CEREP); conditions: read-out: Relative IC50
T32 construct: Eurofins-CEREP

CYP3A4 = biological target: T33, CYP3A4 (Homo sapiens, UniProt P08684); test: Cytochrome p450 inhibition (Eurofins-CEREP); format: in vitro ADME
T33 construct: Eurofins-CEREP

hD1 = hD1 (Homo sapiens, UniProt P21728); test: cAMP Agonist (Eurofins-CEREP); conditions: @ 10 μM
hOPRm1 = hOPRm1 (Homo sapiens, UniProt P35372); test: β-arrestin Antagonist (Eurofins-CEREP); conditions: read-out: % Effect, Inhibition
Sequence of hOPRm1 (P35372 whole entry): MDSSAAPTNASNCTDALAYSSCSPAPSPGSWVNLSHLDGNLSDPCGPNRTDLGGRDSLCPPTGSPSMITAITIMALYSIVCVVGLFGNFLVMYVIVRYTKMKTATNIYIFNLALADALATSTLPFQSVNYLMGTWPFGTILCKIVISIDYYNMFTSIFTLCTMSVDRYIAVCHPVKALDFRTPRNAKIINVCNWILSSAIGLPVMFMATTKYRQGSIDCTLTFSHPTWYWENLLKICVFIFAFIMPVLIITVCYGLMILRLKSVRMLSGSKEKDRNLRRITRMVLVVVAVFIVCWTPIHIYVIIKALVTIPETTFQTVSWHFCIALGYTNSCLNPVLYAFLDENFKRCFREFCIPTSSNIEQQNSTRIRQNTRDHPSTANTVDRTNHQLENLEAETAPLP

T4 sequence (Q13554 whole entry): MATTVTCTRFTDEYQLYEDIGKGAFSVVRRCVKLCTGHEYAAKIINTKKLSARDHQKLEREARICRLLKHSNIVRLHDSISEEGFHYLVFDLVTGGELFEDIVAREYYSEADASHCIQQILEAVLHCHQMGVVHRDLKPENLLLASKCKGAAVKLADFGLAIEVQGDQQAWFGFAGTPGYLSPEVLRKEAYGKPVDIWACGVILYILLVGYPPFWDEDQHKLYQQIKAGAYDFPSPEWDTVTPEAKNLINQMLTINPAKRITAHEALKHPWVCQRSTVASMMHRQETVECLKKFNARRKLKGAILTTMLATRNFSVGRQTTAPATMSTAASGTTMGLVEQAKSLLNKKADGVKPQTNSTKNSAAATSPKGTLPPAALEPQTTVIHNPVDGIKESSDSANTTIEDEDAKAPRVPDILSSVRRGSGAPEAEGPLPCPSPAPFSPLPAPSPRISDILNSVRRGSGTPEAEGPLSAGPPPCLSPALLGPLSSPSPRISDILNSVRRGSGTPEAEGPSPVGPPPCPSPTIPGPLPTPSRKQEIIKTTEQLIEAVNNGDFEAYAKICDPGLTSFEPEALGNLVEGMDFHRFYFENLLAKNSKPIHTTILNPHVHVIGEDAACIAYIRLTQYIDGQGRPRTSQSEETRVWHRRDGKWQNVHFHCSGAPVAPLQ
T24 sequence (Q9Y2H9 whole entry): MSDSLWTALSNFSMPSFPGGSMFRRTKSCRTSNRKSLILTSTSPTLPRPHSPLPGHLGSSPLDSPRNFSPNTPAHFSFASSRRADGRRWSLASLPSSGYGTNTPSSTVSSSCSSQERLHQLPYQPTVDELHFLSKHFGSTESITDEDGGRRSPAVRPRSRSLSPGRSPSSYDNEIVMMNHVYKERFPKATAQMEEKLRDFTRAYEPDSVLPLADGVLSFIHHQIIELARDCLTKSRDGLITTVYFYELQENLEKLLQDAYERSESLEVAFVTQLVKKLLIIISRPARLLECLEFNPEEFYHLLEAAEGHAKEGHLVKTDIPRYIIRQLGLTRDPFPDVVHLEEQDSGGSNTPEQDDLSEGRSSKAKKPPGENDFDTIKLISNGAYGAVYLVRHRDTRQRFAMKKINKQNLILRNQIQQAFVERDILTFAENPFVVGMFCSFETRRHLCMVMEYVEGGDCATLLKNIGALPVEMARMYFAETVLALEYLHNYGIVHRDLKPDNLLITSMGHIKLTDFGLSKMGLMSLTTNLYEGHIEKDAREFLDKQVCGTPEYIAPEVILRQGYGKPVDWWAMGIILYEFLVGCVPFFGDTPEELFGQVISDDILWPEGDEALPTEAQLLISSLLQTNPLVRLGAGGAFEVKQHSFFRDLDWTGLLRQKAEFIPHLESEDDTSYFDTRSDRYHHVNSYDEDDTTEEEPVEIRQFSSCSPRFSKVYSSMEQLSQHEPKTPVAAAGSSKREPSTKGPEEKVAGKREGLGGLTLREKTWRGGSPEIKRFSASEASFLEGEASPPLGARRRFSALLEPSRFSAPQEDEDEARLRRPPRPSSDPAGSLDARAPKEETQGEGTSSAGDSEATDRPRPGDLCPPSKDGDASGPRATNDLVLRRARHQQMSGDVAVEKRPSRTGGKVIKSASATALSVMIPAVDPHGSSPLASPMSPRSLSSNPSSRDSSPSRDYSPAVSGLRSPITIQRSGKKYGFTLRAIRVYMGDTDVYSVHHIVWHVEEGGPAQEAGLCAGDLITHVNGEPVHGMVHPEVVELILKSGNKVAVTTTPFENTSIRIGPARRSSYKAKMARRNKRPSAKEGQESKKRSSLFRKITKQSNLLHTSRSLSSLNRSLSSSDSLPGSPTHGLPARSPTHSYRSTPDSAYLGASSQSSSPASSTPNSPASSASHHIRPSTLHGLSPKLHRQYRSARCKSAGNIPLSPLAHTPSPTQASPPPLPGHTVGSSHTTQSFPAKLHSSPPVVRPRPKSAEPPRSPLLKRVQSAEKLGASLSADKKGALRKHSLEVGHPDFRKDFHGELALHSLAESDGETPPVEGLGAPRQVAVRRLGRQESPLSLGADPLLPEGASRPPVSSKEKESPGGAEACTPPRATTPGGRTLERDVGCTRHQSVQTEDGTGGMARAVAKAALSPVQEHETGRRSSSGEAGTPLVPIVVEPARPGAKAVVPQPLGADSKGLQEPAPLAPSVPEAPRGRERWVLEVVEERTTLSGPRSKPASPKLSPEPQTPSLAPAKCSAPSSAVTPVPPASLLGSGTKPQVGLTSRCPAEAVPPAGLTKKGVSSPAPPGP
T32 sequence (P13631 whole entry): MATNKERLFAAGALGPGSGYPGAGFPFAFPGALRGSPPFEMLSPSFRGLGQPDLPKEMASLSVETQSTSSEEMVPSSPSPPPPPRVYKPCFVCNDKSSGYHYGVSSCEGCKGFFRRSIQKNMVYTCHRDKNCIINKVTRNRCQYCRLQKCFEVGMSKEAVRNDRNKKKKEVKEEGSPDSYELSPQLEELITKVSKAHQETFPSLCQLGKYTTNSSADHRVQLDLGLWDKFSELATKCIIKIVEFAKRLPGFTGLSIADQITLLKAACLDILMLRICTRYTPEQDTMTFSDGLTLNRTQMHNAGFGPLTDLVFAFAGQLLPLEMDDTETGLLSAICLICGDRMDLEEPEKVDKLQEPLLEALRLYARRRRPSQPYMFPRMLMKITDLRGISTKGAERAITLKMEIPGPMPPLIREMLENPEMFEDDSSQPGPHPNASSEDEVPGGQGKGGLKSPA
T13 sequence (P00533 25-1210 T790M): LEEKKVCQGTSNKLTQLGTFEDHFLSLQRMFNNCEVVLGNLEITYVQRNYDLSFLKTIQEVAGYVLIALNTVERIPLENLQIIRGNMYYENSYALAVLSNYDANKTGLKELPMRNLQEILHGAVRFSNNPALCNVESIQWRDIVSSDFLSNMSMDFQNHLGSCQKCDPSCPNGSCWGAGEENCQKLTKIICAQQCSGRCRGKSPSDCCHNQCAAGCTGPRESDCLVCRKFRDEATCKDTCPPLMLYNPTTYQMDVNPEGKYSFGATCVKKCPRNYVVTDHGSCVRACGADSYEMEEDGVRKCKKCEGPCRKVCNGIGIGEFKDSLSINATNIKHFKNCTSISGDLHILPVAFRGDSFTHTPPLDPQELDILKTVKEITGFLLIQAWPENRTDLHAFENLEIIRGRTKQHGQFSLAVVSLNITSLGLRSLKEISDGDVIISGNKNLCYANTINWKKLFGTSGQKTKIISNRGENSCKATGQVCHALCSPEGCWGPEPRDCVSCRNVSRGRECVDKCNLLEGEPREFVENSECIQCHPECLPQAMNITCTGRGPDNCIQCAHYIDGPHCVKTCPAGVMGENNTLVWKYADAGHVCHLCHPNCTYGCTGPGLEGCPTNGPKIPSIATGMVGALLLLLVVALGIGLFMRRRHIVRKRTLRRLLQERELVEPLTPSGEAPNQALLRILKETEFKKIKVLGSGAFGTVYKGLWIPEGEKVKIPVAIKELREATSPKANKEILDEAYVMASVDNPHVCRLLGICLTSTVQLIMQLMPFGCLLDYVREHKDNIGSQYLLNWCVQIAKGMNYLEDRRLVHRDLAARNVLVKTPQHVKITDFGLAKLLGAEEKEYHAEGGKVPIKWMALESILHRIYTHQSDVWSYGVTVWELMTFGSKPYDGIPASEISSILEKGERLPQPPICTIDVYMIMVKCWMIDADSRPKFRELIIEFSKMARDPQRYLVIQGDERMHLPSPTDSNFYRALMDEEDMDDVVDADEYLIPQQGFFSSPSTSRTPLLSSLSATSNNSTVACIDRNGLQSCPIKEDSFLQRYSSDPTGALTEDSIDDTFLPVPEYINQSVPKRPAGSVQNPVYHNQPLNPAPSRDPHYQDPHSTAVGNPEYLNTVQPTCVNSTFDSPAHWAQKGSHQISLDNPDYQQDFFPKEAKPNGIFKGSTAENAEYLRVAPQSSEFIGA
T16 sequence (P06241 whole entry): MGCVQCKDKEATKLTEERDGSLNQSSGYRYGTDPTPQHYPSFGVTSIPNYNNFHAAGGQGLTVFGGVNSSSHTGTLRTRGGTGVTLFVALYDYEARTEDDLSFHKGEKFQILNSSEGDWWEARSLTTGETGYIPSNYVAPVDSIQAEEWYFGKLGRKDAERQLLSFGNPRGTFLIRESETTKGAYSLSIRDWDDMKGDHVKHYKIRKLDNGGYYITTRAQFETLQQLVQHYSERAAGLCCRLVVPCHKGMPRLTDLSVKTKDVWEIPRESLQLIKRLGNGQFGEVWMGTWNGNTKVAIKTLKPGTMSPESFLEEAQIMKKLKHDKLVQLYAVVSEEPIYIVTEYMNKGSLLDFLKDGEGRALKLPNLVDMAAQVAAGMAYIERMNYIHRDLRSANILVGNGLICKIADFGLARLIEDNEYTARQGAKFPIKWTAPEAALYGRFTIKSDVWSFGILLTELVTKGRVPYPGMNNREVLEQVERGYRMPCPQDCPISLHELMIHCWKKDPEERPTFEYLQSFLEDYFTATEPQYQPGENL

Structure (SMILES): Cc1cn(CCN2CCN(c3ccccc3-c3cc(C#N)cc(C(=O)NCCCN4CCCC4)c3)CC2)c2ccccc12 [LLY-507, 3-cyano-5-{2-[4-[2-(3-methylindol-1-yl)ethyl]piperazin-1-yl]-phenyl}-N-[(3-pyrrolidin-1-yl)propyl]benzamide]
- IC50 (hACVRL1): > 20 µM
- IC50 (hAKT3): > 20 µM
- IC50 (hAMPK-alpha2): > 20 µM
- IC50 (hCAMK2B): > 20 µM
- IC50 (hCAMKK2): > 20 µM
- IC50 (hCLK2): > 20 µM
- IC50 (hCSNK2A2): > 20 µM
- IC50 (hDAPK3): > 20 µM
- IC50 (hDCAMKL1): > 20 µM
- IC50 (hDCAMKL2): > 20 µM
- IC50 (hDMPK2): > 20 µM
- IC50 (hDRAK2): > 20 µM
- IC50 (hEGFR(T790M)): > 20 µM
- IC50 (hEPHA7): > 20 µM
- IC50 (hERBB3): > 20 µM
- IC50 (hFYN): > 20 µM
- IC50 (hHIPK1): > 20 µM
- IC50 (hIRAK3): > 20 µM
- IC50 (hJAK2(JH1Dom.-catalytic)): > 20 µM
- IC50 (hLRRK2): > 20 µM
- IC50 (hMAP3K1): > 20 µM
- IC50 (hMAP4K4): > 20 µM
- IC50 (hMARK4): > 20 µM
- IC50 (hMAST1): > 20 µM
- IC50 (hMEK2): > 20 µM
- IC50 (hRIOK2): > 20 µM
- IC50 (hRIPK2): > 20 µM
- IC50 (hROCK2): > 20 µM
- IC50 (hTIE1): > 20 µM
- IC50 (hULK3): > 20 µM
- IC50 (hPPARδ): > 10 µM
- IC50 (hRARγ): > 10 µM
- % inhibition @ 10 μM (CYP3A4): 69.1%
- % Effect, Stimulation (hD1): -6.8%
- inhibition at 1 µM (hOPRm1): -3.9%
